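1) Cells in 96-well plates. 2) Compound, 48 h, 5 concentrations. 3) Linear interpolation between surrounding doses. 4) Unreached endpoint = highest concentration. Here, GI50 denotes the concentration required for 50% inhibition of growth.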 Activity calls are given as the source filed them. Cut-off read from the data, not from the text of the source: active = GI50 up to about 1.1 µM and inactive = higher.
What was measured:
Assay in all cases: inhibition of tumour cell growth, NCI panel, 48 h
786-0 = system: 786-0
A498 = system: A498
CCRF-CEM = system: CCRF-CEM
COLO 205 = system: COLO 205
HCC 2998 = system: HCC 2998
HCT-116 = system: HCT-116
HCT-15 = system: HCT-15
HOP-92 = system: HOP-92
KM12 = system: KM12
MCF7 = system: MCF7
NCI-H23 = system: NCI-H23
NCI-H522 = system: NCI-H522
OVCAR-4 = system: OVCAR-4
OVCAR-5 = system: OVCAR-5
PC-3 = system: PC-3
SF-295 = system: SF-295
SK-MEL-5 = system: SK-MEL-5
SK-OV-3 = system: SK-OV-3
SN12C = system: SN12C
UO-31 = system: UO-31

SMILES | GI50 (786-0) | GI50 (A498) | GI50 (CCRF-CEM) | GI50 (COLO 205) | GI50 (HCC 2998) | GI50 (HCT-116) | GI50 (HCT-15) [µM] | GI50 (HOP-92) | GI50 (KM12) | GI50 (MCF7) | GI50 (NCI-H23) | GI50 (NCI-H522) | GI50 (OVCAR-4) | GI50 (OVCAR-5) | GI50 (PC-3) | GI50 (SF-295) | GI50 (SK-MEL-5) | GI50 (SK-OV-3) | GI50 (SN12C) | GI50 (UO-31)
COC(=O)c1sc(=S)sc1SCc1ccccc1CSc1sc(=S)sc1C(=O)OC | 46.1 µM (inactive) | > 100 µM (inactive) | 27.5 µM (inactive) | > 100 µM (inactive) | > 100 µM (inactive) | > 100 µM (inactive) | > 100 | > 100 µM (inactive) | > 100 µM (inactive) | > 100 µM (inactive) | > 100 µM (inactive) | > 100 µM (inactive) | > 100 µM (inactive) | > 100 µM (inactive) | > 100 µM (inactive) | 58.9 µM (inactive) | > 100 µM (inactive) | 46.6 µM (inactive) | > 100 µM (inactive) | > 100 µM (inactive)
C/C(=N\Nc1nc2ccccc2s1)c1ccncn1 | 0.719 µM (active) | > 100 µM (inactive) | 0.117 µM (active) | 0.126 µM (active) | 4.88 µM (inactive) | 0.532 µM (active) | 0.661 | 0.817 µM (active) | 1.42 µM (inactive) | 0.348 µM (active) | 0.56 µM (active) | 0.12 µM (active) | 2.52 µM (inactive) | 3.13 µM (inactive) | 2.06 µM (inactive) | 3.31 µM (inactive) | 0.621 µM (active) | 1.74 µM (inactive) | 0.379 µM (active) | 0.387 µM (active)
O=C1CC2(CCCc3sccc32)C(=O)N1 (stereo not given) | > 100 µM (inactive) | > 100 µM (inactive) | > 100 µM (inactive) | > 100 µM (inactive) | > 100 µM (inactive) | > 100 µM (inactive) | > 100 | > 100 µM (inactive) | > 100 µM (inactive) | > 100 µM (inactive) | > 100 µM (inactive) | > 100 µM (inactive) | > 100 µM (inactive) | > 100 µM (inactive) | > 100 µM (inactive) | > 100 µM (inactive) | > 100 µM (inactive) | > 100 µM (inactive) | > 100 µM (inactive) | > 100 µM (inactive)
N[C@H](C(=O)O)[C@@H]1CC(Br)=NO1 | 13 µM (inactive) | 18.1 µM (inactive) | 14.1 µM (inactive) | 33.3 µM (inactive) | 22.7 µM (inactive) | 5.6 µM (inactive) | 6.38 | > 29.4 µM (inactive) | 10.6 µM (inactive) | 3.42 µM (inactive) | > 35.7 µM (inactive) | > 32 µM (inactive) | 21.9 µM (inactive) | 16.8 µM (inactive) | 23.6 µM (inactive) | 6.28 µM (inactive) | 14.5 µM (inactive) | 8.05 µM (inactive) | 38.3 µM (inactive) | 6.46 µM (inactive)
O=C(c1cc(Br)ccc1O)c1cc(Br)ccc1O | 16.9 µM (inactive) | 17.6 µM (inactive) | 22.5 µM (inactive) | 17.4 µM (inactive) | 19.1 µM (inactive) | 15.9 µM (inactive) | 18.7 | 13.6 µM (inactive) | 17.1 µM (inactive) | 16.8 µM (inactive) | 17.1 µM (inactive) | 15 µM (inactive) | 16.6 µM (inactive) | 17.4 µM (inactive) | 17.1 µM (inactive) | 17.7 µM (inactive) | 12.6 µM (inactive) | 19.4 µM (inactive) | 16.7 µM (inactive) | 14.3 µM (inactive)
CC(NNC(=O)CC(=O)N(C(=O)c1ccccc1)c1ccc(Cl)cc1)c1cc2ccccc2oc1=O (stereo not given) | > 10 µM (inactive) | > 10 µM (inactive) | > 10 µM (inactive) | > 10 µM (inactive) | > 10 µM (inactive) | > 10 µM (inactive) | > 10 | > 10 µM (inactive) | > 10 µM (inactive) | > 10 µM (inactive) | > 10 µM (inactive) | > 10 µM (inactive) | > 10 µM (inactive) | > 10 µM (inactive) | > 10 µM (inactive) | > 10 µM (inactive) | > 10 µM (inactive) | > 10 µM (inactive) | > 10 µM (inactive) | 0.0995 µM (active)
